The values below are quoted from earlier work in patent US20080031860A1 (N.V. NUTRICIA, priority 2003, published 2008).

For data set [1] the following is noted: after 4 weeks of therapy.
The conditions of data set [2]: intake of 10-20 mg per day.

In the case of `CCCCCc1cc(O)c2c(c1)OC(C)(C)[C@@H]1CCC(C)=C[C@@H]21` [dronabinol], the appetite entry in data set [1] was “significantly stimulates appetite”. As for calcium D-pantothenate, the reported adverse effect entry in data set [2] is given as “diarrhea”.
